According to patent publication EP1598418A1, “STABILISED COMPOSITION FOR FLUORIMETRIC, COLORIMETRIC OR CHEMOLUMINESCENT ASSAYS, KITS CONTAINING SAME AND PRODUCTION METHOD THEREOF” (BIOTOOLS BIOTECHNOLOGICAL & MEDICAL LABORATORIES, S.A., priority 2003, dated 2004):

Experiments:
Conditions in all cases: conserved at T 4 °C, vs fresh mixture
[1] = test system: DTCS Quick Start Master Mix; assay: Sequencing reaction with desiccated, stabilised mixture with fluorescent terminators after storage (Example 6); assay type: biochemical, human papillomavirus
Description: To test the possibility of gelling reaction mixtures for sequencing nucleic acids the CEQ 200 Dye Terminator Cycle Sequencing (DTCS) Quick Start Kit (Beckman Coulter) was employed, which uses a PCR sequencing system in a single tube by incorporating four different fluorescent terminators. The sequencing reactions were later analysed in a CEQ 2000 XL DNA Analysis System (Beckman Coulter) capillary electrophoresis automatic sequencing system.
Reaction mixtures were prepared containing 4 microlitres of DTCS Quick Start Master Mix, 1 microlitre of universal primer M13-17 and the suitable volume of each stabilising mixture shown in Table 1.
In parallel, in order to check the evolution of the activity of the desiccated and stabilised tubes, the same plasmid was sequenced using a fresh sequencing mixture in standard conditions. Finally, the sequencing reactions were analysed in the CEQ 200XL system following the supplier's instructions.

[2] = test system: nucleic acids immobilised in ELISA microplates; assay: Amplification and colorimetric detection with stabilised nucleic acids immobilised in ELISA microplates (Example 10.1)
[3] = test system: probes marked with biotin or digoxygenin groups; assay: Synthesis of digoxygenin-marked probes with desiccated mixtures and molecular hybridisation test (Example 9)
antidigoxygenin antibody = assay: Colorimetry assay of stabilised protein immobilised in ELISA microplates (Example 10.2); assay type: biochemical, HPV
Description: To do so each dimple was incubated with 1µg of antidigoxygenin antibody (Roche).
The amplified product was incubated for 30 minutes in the dimples with the antibody immobilised. The amplified products immobilised in the plate by the union of the digoxygenin group of the amplicons and the immobilised anti-digoxygenin group were analysed by a colorimetric assay. […] The colorimetric reaction was finally analysed by measuring absorption at 415 nm.

TaqMan probes = assay: Real-time amplification with desiccated, stabilised reaction mixture with TaqMan probes after storage (Example 2); assay type: biochemical, P. falciparum
FRET probes = assay: Real-time amplification with desiccated, stabilised reaction mixture with FRET probes after storage (Example 1); assay type: biochemical, P. falciparum
[4] = test system: nucleic acids immobilised in modified glasses; assay: Colorimetric assay of stabilised nucleic acids immobilised in modified glasses (Example 10.3); assay type: biochemical, HPV 16
Description: Approach 1. Stabilisation of supports with previously fixed nucleic acids. HPV specific probes were fixed to glass supports pre-treated with polylysiun, aldehyde, epoxy, superepoxy and silane. To do so, in each support slide 1 microlitre spots were applied of the solution of each oligonucleotide at a concentration of 20 µM in the conditions indicated for each glass format. The slides with the immobilised oligonucleotides were then coated with a thin layer of each of the stabilising mixtures and then desiccated in a vacuum oven at 25°C and 50 mbar pressure.
Approach 2. Fixation to the slides of the nucleic acids pre-mixed with the stabilising mixtures. A mixture was prepared of each of the probes with the suitable volumes of the stabilising mixtures described in Table 1. Then the mixtures of oligonucleotides were applied to the various slides with the fixing conditions indicated for each glass format.
To test the viability of each slide prepared, a colorimetric assay was performed with formation of precipitate products. To do so, the slides were washed for 5 minutes in PBS 1X at room temperature to eliminate the protective layer. Then the slides were incubated in the presence of an amplified and previously denatured HPV 16 product using the probes A11 and A12.

[5] = test system: streptoavidin conjugated with HRP (Str-HRP) and anti-digoxygenin conjugated with alkaline phospatase (anti-DIG-AP); assay: Colorimetric ELISA plate activity test of desiccated, stabilised conjugates (Example 8); assay type: biochemical, HPV 16
Description: In 0.2 ml amplification tubes were added 100 microlitres of a 1/250 dilution in a blocking solution of the conjugate Str-HRP (Biospa). In parallel, 0.2 ml phials were prepared in which 100 microlitres were added of a 1/250 dilution in a blocking solution of anti-DIG-AP (Sigma).
For the activity assay of the conjugate anti-DIG-AP an ELISA plate was used in which the dimples had been previously coated with streptoavidin. For the activity assay of conjugate Str-HRP a plate was used instead with dimples previously coated with anti-DIG antibodies. The amplified products were incubated in each plate to allow the immobilisation of the amplicons in the plate.

[6] = test system: Molecular Beacon (MB) probe; assay: Real-time amplification with desiccated, stabilised reaction mixture with Molecular Beacon probe after storage (Example 3); assay type: biochemical, P. falciparum
[7] = test system: oligonucleotides chemically modified by including biotin and/or digoxygenin groups; assay: Amplification with desiccated biotin/digoxygenin oligonucleotides and colorimetric ELISA plate assay (Example 7); assay type: biochemical, oncogenic HPV
Description: To do so, 4 oligonucleotides were designed that hybridised with the genome of region E6-E7 of oncogenic HPV species.
To do so, an ELISA microplate with a high-binding capacity to streptoavidin (Biospa) was activated following a standard fixing protocol. Then, after blocking the plate by incubation with gelatine, the amplified products of the stabilising mixtures 1, 2 and 3 described in Example 7.A were analysed by a colorimetry assay according to the following experimental process: • A.- Amplification products using an onligonucleotide marked with digoxygenin (mixture 1 in Example 7.A). The biotinated probe A11 was fixed to the plate and the amplified product was hybridised. […] The amplification product was fixed to the plate with the first biotinilate and then hybridised with the first A12 marked with digoxygenin.

[8] = test system: Anti-digoxygenin antibodies; assay: Colorimetric assay of stabilised proteins immobilised in modified glasses (Example 10.4); assay type: biochemical, P. falciparum
Description: To test the possibility of stabilising proteins that have been previously immobilised in pre-treated glass supports, the usual format of microarray systems, two different alternatives were tested as in the previous experiment.
Approach 1. Stabilisation of supports with previously fixed protein. Anti-digoxygenin antibodies were fixed to glass supports pre-treated with aldehyde. To do so, in each support slide 1 microlitre spots were applied of the solution of each protein at a concentration of 30 ng/µl. The slides with the immobilised protein were then coated with a thin layer of each of the stabilising mixtures and then desiccated in a vacuum oven at 25°C and 50 mbar pressure.
Approach 2. Fixation to the slides of the protein pre-mixed with the stabilising mixtures. A mixture was prepared of each of the probes with the suitable volumes of the stabilising mixtures described in Table 1. Then the mixtures of protein were applied to the various slides with the fixing conditions indicated for each glass format.
To test the viability of each slide prepared, a colorimetric assay was performed with formation of precipitate products. To do so, the slides were washed for 5 minutes in PBS 1X at room temperature to eliminate the protective layer.

Scorpion probes = assay: Real-time amplification with desiccated, stabilised reaction mixture with Scorpion probes after storage (Example 4); assay type: biochemical, M. tuberculosis
[9] = test system: reaction mixture with SYBR Green; assay: Real-time amplification with desiccated, stabilised reaction mixture with SYBR Green after storage (Example 5); assay type: biochemical, oncogenic papillomaviruses
Description: To test the efficiency of intercalated fluorophores such as SYBR Green included in desiccated and stabilised reaction mixtures, reaction mixtures were prepared for amplifying a 250 bp fragment corresponding to region E6-E7 of oncogenic papillomaviruses, using the same reagents as described in Example 1. In this case the unit "DNA Engine OPTICON™ 2 System" (MJ Research) was used. […] Also to each phial was added […] of SYBR Green 1 (Molecular probes).
Various tubes were prepared as described above, adding to each the suitable volume of each stabilising mixture shown in Table 1.
In parallel, in order to check the evolution of the activity of the desiccated tubes, DNA samples were amplified using a fresh mixture in the same amplification conditions.
The result of the amplification reaction was analysed in every case by inspecting the fluorescence curve and determining the crossing point, following the instructions of the equipment software, for each reaction tube both fresh and desiccated and stabilised. […] The samples of patients infected with oncogenic HPV gave positive results in every case, while patients infected with non-oncogenic HPV, or not infected with HPV, gave negative results in every case.

| SMILES | activity of stabilising mixtures [1] | activity of stabilising mixtures [2] | activity of stabilising mixtures [3] | activity of stabilising mixtures (antidigoxygenin antibody) | activity of stabilising mixtures (TaqMan probes) | activity of stabilising mixtures (FRET probes) | activity of stabilising mixtures [4] | activity of stabilising mixtures [5] | activity of stabilising mixtures [6] | activity of stabilising mixtures [7] | activity of stabilising mixtures [8] | activity of stabilising mixtures (Scorpion probes) | activity of stabilising mixtures [9] |
| --- | --- | --- | --- | --- | --- | --- | --- | --- | --- | --- | --- | --- | --- |
| OC[C@H]1O[C@H](OC[C@H]2O[C@H](O[C@]3(CO)O[C@H](CO)[C@@H](O)[C@@H]3O)[C@H](O)[C@@H](O)[C@@H]2O)[C@H](O)[C@@H](O)[C@H]1O [Rafinose] | + (+, weak positive, under 50% of the activity of the fresh mixture) | + (+, weak positive, under 50% of the activity of the fresh mixture) | + (+, weak positive, under 50% of the activity of the fresh mixture) | + (+, weak positive, under 50% of the activity of the fresh mixture) | + (+, weak positive, under 50% of the activity of the fresh mixture) | + (+, weak positive, under 50% of the activity of the fresh mixture) | + (+, weak positive, under 50% of the activity of the fresh mixture) | + (+, weak positive, under 50% of the activity of the fresh mixture) | + (+, weak positive, under 50% of the activity of the fresh mixture) | + (+, weak positive, under 50% of the activity of the fresh mixture) | + (+, weak positive, under 50% of the activity of the fresh mixture) | + (+, weak positive, under 50% of the activity of the fresh mixture) | + (+, weak positive, under 50% of the activity of the fresh mixture) |
| OC[C@H]1O[C@@](CO)(O[C@H]2O[C@H](CO)[C@@H](O)[C@H](O)[C@H]2O)[C@@H](O)[C@@H]1O [Sucrose] | + (+, weak positive, under 50% of the activity of the fresh mixture) | + (+, weak positive, under 50% of the activity of the fresh mixture) | + (+, weak positive, under 50% of the activity of the fresh mixture) | + (+, weak positive, under 50% of the activity of the fresh mixture) | + (+, weak positive, under 50% of the activity of the fresh mixture) | + (+, weak positive, under 50% of the activity of the fresh mixture) | + (+, weak positive, under 50% of the activity of the fresh mixture) | + (+, weak positive, under 50% of the activity of the fresh mixture) | + (+, weak positive, under 50% of the activity of the fresh mixture) | + (+, weak positive, under 50% of the activity of the fresh mixture) | + (+, weak positive, under 50% of the activity of the fresh mixture) | + (+, weak positive, under 50% of the activity of the fresh mixture) | + (+, weak positive, under 50% of the activity of the fresh mixture) |
